Assay results taken from patent publication US20120029187A1, “HALOALKYLSULFONANILIDE DERIVATIVE” (Nissan Chemical Industries, Ltd., priority 2009, published 2012).

What was measured:
Type in all cases: in vivo
bulrush [1] = assay: Test Example 2: herbicidal effects during the vegetation period under submerged conditions; settings: treatment during the vegetation period under submerged conditions; dose 2.52 g/a
Method in brief: (§1)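 Barnyardgrass, bulrush and ducksalad were co-sown in alluvial soil flooded to 4 cm and grown in a greenhouse at 25 to 30° C. At the 1- or 2-leaf stage, water-diluted emulsifiable concentrates went onto the water surface at set doses (g/a). Herbicidal effect was scored three weeks later on a graded scale.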

ducksalad [2] = assay: as above; settings: treatment during the vegetation period under submerged conditions; dose 2.52 g/a
Method in brief: as §1

barnyardgrass [3] = assay: as above; settings: treatment during the vegetation period under submerged conditions; dose 2.52 g/a
Method in brief: as §1

bulrush [4] = assay: Test Example 1: herbicidal effects in preemergence treatment under submerged conditions; settings: dose 2.52 g/a
Method in brief: (§2)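 Submerged conditions, 4 cm water over alluvial soil. Weeds sown and 2.5-leaf rice transplanted; compound applied preemergence to water surface, doses in g per are. Greenhouse, 25 to 30° C., three weeks, then 0–5 mortality rating.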

ducksalad [5] = assay: as above; settings: dose 2.52 g/a
Method in brief: as §2

barnyardgrass [6] = assay: as above; settings: dose 2.52 g/a
Method in brief: as §2

transplanted rice = assay: Test Example 1: preemergence treatment under submerged conditions, effect on crop; settings: dose 2.52 g/a
Method in brief: as §2

common chickweed [7] = assay: Test Example 4: herbicidal effect in foliage treatment; settings: dose 3.2 g/a, three weeks after application
Method in brief: (§3)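 Herbicidal effect was rated on an evaluation scale three weeks after treatment. Plants had been raised 14 days at 25 to 30° C in sterilized diluvial soil, then received foliar sprays of emulsifiable concentrate diluted in water at predetermined doses expressed as g per are.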

common ragweed [8] = assay: as above; settings: dose 3.2 g/a, three weeks after application
Method in brief: as §3

large crabgrass [9] = assay: as above; settings: dose 3.2 g/a, three weeks after application
Method in brief: as §3

redroot pigweed [10] = assay: as above; settings: dose 3.2 g/a, three weeks after application
Method in brief: as §3

giant foxtail [11] = assay: as above; settings: dose 3.2 g/a, three weeks after application
Method in brief: as §3

beadstraw = assay: as above; settings: dose 3.2 g/a, three weeks after application
Method in brief: as §3

wild oat [12] = assay: as above; settings: dose 3.2 g/a, three weeks after application
Method in brief: as §3

common lambsquater [13] = assay: as above; settings: dose 3.2 g/a, three weeks after application
Method in brief: as §3

Italian ryegrass [14] = assay: as above; settings: dose 3.2 g/a, three weeks after application
Method in brief: as §3

barnyardgrass [15] = assay: as above; settings: dose 3.2 g/a, three weeks after application
Method in brief: as §3

velvetleaf [16] = assay: as above; settings: dose 3.2 g/a, three weeks after application
Method in brief: as §3

posumbu knotweed [17] = assay: as above; settings: dose 3.2 g/a, three weeks after application
Method in brief: as §3

water foxtail [18] = assay: as above; settings: dose 3.2 g/a, three weeks after application
Method in brief: as §3

common chickweed [19] = assay: Test Example 3: herbicidal effects in soil treatment; settings: dose 3.2 g/a
Method in brief: (§4)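 Seeds were sown in sterilized diluvial soil and covered with about 1.5 cm of soil. Compounds, formulated as emulsifiable concentrates and diluted with water, were sprayed evenly over the soil surface at set doses in g/a. Herbicidal effect was scored on a rating scale three weeks later.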

common ragweed [20] = assay: as above; settings: dose 3.2 g/a
Method in brief: as §4

large crabgrass [21] = assay: as above; settings: dose 3.2 g/a
Method in brief: as §4

redroot pigweed [22] = assay: as above; settings: dose 3.2 g/a
Method in brief: as §4

giant foxtail [23] = assay: as above; settings: dose 3.2 g/a
Method in brief: as §4

wild oat [24] = assay: as above; settings: dose 3.2 g/a
Method in brief: as §4

common lambsquater [25] = assay: as above; settings: dose 3.2 g/a
Method in brief: as §4

Italian ryegrass [26] = assay: as above; settings: dose 3.2 g/a
Method in brief: as §4

barnyardgrass [27] = assay: as above; settings: dose 3.2 g/a
Method in brief: as §4

velvetleaf [28] = assay: as above; settings: dose 3.2 g/a
Method in brief: as §4

posumbu knotweed [29] = assay: as above; settings: dose 3.2 g/a
Method in brief: as §4

water foxtail [30] = assay: as above; settings: dose 3.2 g/a
Method in brief: as §4

| SMILES | B: bulrush, herbicidal effect (evaluation scale 0-5) (bulrush [1]) | C: ducksalad, herbicidal effect (evaluation scale 0-5) (ducksalad [2]) | A: barnyardgrass, herbicidal effect (evaluation scale 0-5) (barnyardgrass [3]) | B: bulrush, herbicidal effect (evaluation scale 0-5) (bulrush [4]) | C: ducksalad, herbicidal effect (evaluation scale 0-5) (ducksalad [5]) | A: barnyardgrass, herbicidal effect (evaluation scale 0-5) (barnyardgrass [6]) | a: transplanted rice, effect on crop (evaluation scale 0-5) (transplanted rice) | N: common chickweed, herbicidal effect (common chickweed [7]) | J: common ragweed, herbicidal effect (common ragweed [8]) | D: large crabgrass, herbicidal effect (large crabgrass [9]) | K: redroot pigweed, herbicidal effect (redroot pigweed [10]) | E: giant foxtail, herbicidal effect (giant foxtail [11]) | O: beadstraw, herbicidal effect (beadstraw) | F: wild oat, herbicidal effect (wild oat [12]) | L: common lambsquater, herbicidal effect (common lambsquater [13]) | H: Italian ryegrass, herbicidal effect (Italian ryegrass [14]) | A: barnyardgrass, herbicidal effect (barnyardgrass [15]) | I: velvetleaf, herbicidal effect (velvetleaf [16]) | M: posumbu knotweed, herbicidal effect (posumbu knotweed [17]) | G: water foxtail, herbicidal effect (water foxtail [18]) | also measured |
| --- | --- | --- | --- | --- | --- | --- | --- | --- | --- | --- | --- | --- | --- | --- | --- | --- | --- | --- | --- | --- | --- |
| CC1COCC(=O)N1Cc1ccccc1NS(=O)(=O)C(F)(F)F (stereo not shown) [Compound I-13] | 5 (mortality of 90% or above (nearly complete death)) | 5 (mortality of 90% or above (nearly complete death)) | 5 (mortality of 90% or above (nearly complete death)) | 5 (mortality of 90% or above (nearly complete death)) | 5 (mortality of 90% or above (nearly complete death)) | 5 (mortality of 90% or above (nearly complete death)) | 1 (mortality of at least 5% and less than 20%) | 4 (mortality of at least 70% and less than 90%) | 4 (mortality of at least 70% and less than 90%) | 5 (mortality of 90% or above (nearly complete death)) | 3 (mortality of at least 40% and less than 70%) | 4 (mortality of at least 70% and less than 90%) | 4 (mortality of at least 70% and less than 90%) | 0 (mortality of less than 5% (almost ineffective)) | 3 (mortality of at least 40% and less than 70%) | 5 (mortality of 90% or above (nearly complete death)) | 5 (mortality of 90% or above (nearly complete death)) | 5 (mortality of 90% or above (nearly complete death)) | 3 (mortality of at least 40% and less than 70%) | 5 (mortality of 90% or above (nearly complete death)) | N: common chickweed, herbicidal effect (evaluation scale 0-5) (common chickweed [19]): 5 (mortality of 90% or above (nearly complete death)); J: common ragweed, herbicidal effect (evaluation scale 0-5) (common ragweed [20]): 5 (mortality of 90% or above (nearly complete death)); D: large crabgrass, herbicidal effect (evaluation scale 0-5) (large crabgrass [21]): 5 (mortality of 90% or above (nearly complete death)); K: redroot pigweed, herbicidal effect (evaluation scale 0-5) (redroot pigweed [22]): 5 (mortality of 90% or above (nearly complete death)); E: giant foxtail, herbicidal effect (evaluation scale 0-5) (giant foxtail [23]): 5 (mortality of 90% or above (nearly complete death)); F: wild oat, herbicidal effect (evaluation scale 0-5) (wild oat [24]): 3 (mortality of at least 40% and less than 70%); L: common lambsquater, herbicidal effect (evaluation scale 0-5) (common lambsquater [25]): 5 (mortality of 90% or above (nearly complete death)); H: Italian ryegrass, herbicidal effect (evaluation scale 0-5) (Italian ryegrass [26]): 5 (mortality of 90% or above (nearly complete death)); A: barnyardgrass, herbicidal effect (evaluation scale 0-5) (barnyardgrass [27]): 5 (mortality of 90% or above (nearly complete death)); I: velvetleaf, herbicidal effect (evaluation scale 0-5) (velvetleaf [28]): 5 (mortality of 90% or above (nearly complete death)); M: posumbu knotweed, herbicidal effect (evaluation scale 0-5) (posumbu knotweed [29]): 5 (mortality of 90% or above (nearly complete death)); G: water foxtail, herbicidal effect (evaluation scale 0-5) (water foxtail [30]): 5 (mortality of 90% or above (nearly complete death)) |
| CCOC(=O)N(c1ccccc1CN1C(=O)COCC1C)S(=O)(=O)C(F)(F)F (stereo not shown) [Compound I-14] | 5 (mortality of 90% or above (nearly complete death)) | 5 (mortality of 90% or above (nearly complete death)) | 5 (mortality of 90% or above (nearly complete death)) | 5 (mortality of 90% or above (nearly complete death)) | 5 (mortality of 90% or above (nearly complete death)) | 5 (mortality of 90% or above (nearly complete death)) | 0 (mortality of less than 5% (almost ineffective)) | 4 (mortality of at least 70% and less than 90%) | 4 (mortality of at least 70% and less than 90%) | 4 (mortality of at least 70% and less than 90%) | 4 (mortality of at least 70% and less than 90%) | 4 (mortality of at least 70% and less than 90%) | 4 (mortality of at least 70% and less than 90%) | 0 (mortality of less than 5% (almost ineffective)) | 5 (mortality of 90% or above (nearly complete death)) | 5 (mortality of 90% or above (nearly complete death)) | 5 (mortality of 90% or above (nearly complete death)) | 5 (mortality of 90% or above (nearly complete death)) | 4 (mortality of at least 70% and less than 90%) | 5 (mortality of 90% or above (nearly complete death)) | N: common chickweed, herbicidal effect (evaluation scale 0-5) (common chickweed [19]): 5 (mortality of 90% or above (nearly complete death)); J: common ragweed, herbicidal effect (evaluation scale 0-5) (common ragweed [20]): 5 (mortality of 90% or above (nearly complete death)); D: large crabgrass, herbicidal effect (evaluation scale 0-5) (large crabgrass [21]): 5 (mortality of 90% or above (nearly complete death)); K: redroot pigweed, herbicidal effect (evaluation scale 0-5) (redroot pigweed [22]): 5 (mortality of 90% or above (nearly complete death)); E: giant foxtail, herbicidal effect (evaluation scale 0-5) (giant foxtail [23]): 5 (mortality of 90% or above (nearly complete death)); F: wild oat, herbicidal effect (evaluation scale 0-5) (wild oat [24]): 4 (mortality of at least 70% and less than 90%); L: common lambsquater, herbicidal effect (evaluation scale 0-5) (common lambsquater [25]): 5 (mortality of 90% or above (nearly complete death)); H: Italian ryegrass, herbicidal effect (evaluation scale 0-5) (Italian ryegrass [26]): 5 (mortality of 90% or above (nearly complete death)); A: barnyardgrass, herbicidal effect (evaluation scale 0-5) (barnyardgrass [27]): 5 (mortality of 90% or above (nearly complete death)); I: velvetleaf, herbicidal effect (evaluation scale 0-5) (velvetleaf [28]): 5 (mortality of 90% or above (nearly complete death)); M: posumbu knotweed, herbicidal effect (evaluation scale 0-5) (posumbu knotweed [29]): 5 (mortality of 90% or above (nearly complete death)); G: water foxtail, herbicidal effect (evaluation scale 0-5) (water foxtail [30]): 5 (mortality of 90% or above (nearly complete death)) |
